Data as given in US11459315B2, “Modulators of methyl modifying enzymes, compositions and uses thereof” (Constellation Pharmaceuticals, Inc., priority 2017, dated 2022).
Like-named read-outs stand apart in the source and are kept apart here.

How the values were obtained:
[1] = tested on: H3K27me3 mark in HeLa cells (EZH2); test: H3K27me3 Alpha Hela Assay (AlphaLISA); assay type: cell-based; settings: HeLa cells, 72 hrs, read-out: EZH2 Cell H3K27me3 Alpha HeLa (EC50 K27me3)
Experimental: H3K27me3 Alpha Hela Assay (AlphaLISA). Ten different doses of each test compound (in a series of 3-fold dilutions) were plated in duplicate 384-well tissue culture treated plates (Catalog #6007680; Perkin Elmer, Waltham, Mass.). Hela cells grown in culture were trypsinized and counted using a Countess® cell counter (Catalog #C10281; Life Technologies, Grand Island, N.Y.). Cell were diluted to 67,000 cells per mL in 10% DMEM (Catalog #10569-010 Life Technologies, Grand Island, N.Y.) and 15 μL (1,000 cells) were plated into each well using the Biotek MicroFlo™ Select Dispenser (BioTek Instruments, Inc. Vermont, USA),) of the 384-well plate. Plates were incubated at 37° C./5% CO2 for 72 hrs. One of the duplicate plates was processed for HeLa assay and the other for viability.
5 μL of Cell-Histone Lysis buffer (1×) (Catalog #AL009F1 Perkin Elmer; Waltham, Mass.) per well was added to the plate processed for AlphaLISA and the plate was incubated at RT for 30 minutes on a plate shaker with low speed (Model #4625-Q Thermo Scientific; Waltham, Mass.). Then, 10 μL per well Histone Extraction buffer (catalog #AL009F2; Perkin Elmer; Waltham, Mass.) was added and the plate further incubated at RT for 20 min on plate shaker with low speed. Next, 10 μL of 5× mix of anti-K27me3 acceptor beads plus Biotinylated anti-Histone H3 (C-ter) Antibody (diluted to 3 nM final) (Catalog #AL118 Perkin Elmer; Waltham, Mass.) was added in each well. Dilution of the acceptor beads and anti-Histone H3 was done in 1× Histone Detection buffer (Catalog #AL009F3 Perkin Elmer; Waltham, Mass.) which was produced by diluting the 10× stock provided. The plate was sealed with an aluminum plate sealer and incubated at 23° C. for 60 min. Next, 10 μL 5× solution of Streptavidin Donor beads were added (Catalog #6760002 Perkin Elmer; Waltham, Mass.) (20 μg/mL final in 1× Histone Detection Buffer), =plate was sealed with Aluminum plate sealer and incubated at 23° C. for 30 min. The plates were then read using an EnVision-Alpha Reader (model #2104 Perkin Elmer; Waltham, Mass.).
Data from both assays was analyzed using Genedata (Basel, Switzerland). Data files were imported to Genedata and assay conditions were specified. A unique Analysis ID was created and the data files analysed to measure dose-dependent inhibition of H3K27me3 mark and cell viability respectively. Readout of DMSO wells were used to normalize the data. Resulting curves were fitted using Smart fit application (Genedata; Basel, Switzerland). The data was checked for quality, validated and integrated in excel format using Stardrop (Optibruim, Cambridge, UK).
EC50 values are reported as follows: “A” indicates an EC50 value of less than 10 nM; “B” indicates an EC50 value of 10 nM to 100 nM; “C” indicates an EC50 value of greater than 100 nM; and “ND” is not determined.

[2] = target: PRC2 containing wt EZH2 (Homo sapiens (Human), UniProt Q15910); test: EZH2 biochemical assay (IC50), 3H-SAM incorporation into biotinylated H3 peptide
PRC2 containing wt EZH2, sequence (Q15910 whole entry): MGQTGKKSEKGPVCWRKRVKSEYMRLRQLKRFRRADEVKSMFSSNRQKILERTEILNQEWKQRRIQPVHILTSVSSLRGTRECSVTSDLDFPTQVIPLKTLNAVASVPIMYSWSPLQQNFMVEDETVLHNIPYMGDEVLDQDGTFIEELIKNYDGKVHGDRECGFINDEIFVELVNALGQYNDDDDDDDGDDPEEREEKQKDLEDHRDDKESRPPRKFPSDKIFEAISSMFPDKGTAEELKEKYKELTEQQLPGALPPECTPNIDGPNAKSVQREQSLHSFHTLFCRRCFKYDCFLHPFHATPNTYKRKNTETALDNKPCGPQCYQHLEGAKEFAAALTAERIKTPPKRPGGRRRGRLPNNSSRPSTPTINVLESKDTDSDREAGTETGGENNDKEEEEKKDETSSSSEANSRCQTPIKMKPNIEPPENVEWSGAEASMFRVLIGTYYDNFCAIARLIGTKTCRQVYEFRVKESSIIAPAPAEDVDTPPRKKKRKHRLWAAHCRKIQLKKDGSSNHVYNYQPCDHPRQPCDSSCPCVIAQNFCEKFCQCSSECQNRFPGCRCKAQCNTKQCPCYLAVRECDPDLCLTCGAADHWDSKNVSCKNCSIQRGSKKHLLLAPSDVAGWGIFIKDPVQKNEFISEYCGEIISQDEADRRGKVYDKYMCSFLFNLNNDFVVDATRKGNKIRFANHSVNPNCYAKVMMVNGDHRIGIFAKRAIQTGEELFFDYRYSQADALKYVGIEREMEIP
PRC2 containing wt EZH2, sequence (O75530 whole entry partner): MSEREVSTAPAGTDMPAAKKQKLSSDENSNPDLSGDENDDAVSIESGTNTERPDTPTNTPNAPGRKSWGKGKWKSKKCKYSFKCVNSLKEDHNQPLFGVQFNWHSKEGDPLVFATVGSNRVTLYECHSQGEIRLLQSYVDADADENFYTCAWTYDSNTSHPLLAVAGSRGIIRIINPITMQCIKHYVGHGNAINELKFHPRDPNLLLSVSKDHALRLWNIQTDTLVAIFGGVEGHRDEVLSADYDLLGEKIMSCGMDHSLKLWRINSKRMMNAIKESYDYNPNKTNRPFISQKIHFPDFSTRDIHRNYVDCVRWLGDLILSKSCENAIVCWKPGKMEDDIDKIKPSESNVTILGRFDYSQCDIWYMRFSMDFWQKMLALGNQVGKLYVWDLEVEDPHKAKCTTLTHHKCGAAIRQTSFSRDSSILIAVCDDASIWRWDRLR
PRC2 containing wt EZH2, sequence (Q15022 whole entry partner): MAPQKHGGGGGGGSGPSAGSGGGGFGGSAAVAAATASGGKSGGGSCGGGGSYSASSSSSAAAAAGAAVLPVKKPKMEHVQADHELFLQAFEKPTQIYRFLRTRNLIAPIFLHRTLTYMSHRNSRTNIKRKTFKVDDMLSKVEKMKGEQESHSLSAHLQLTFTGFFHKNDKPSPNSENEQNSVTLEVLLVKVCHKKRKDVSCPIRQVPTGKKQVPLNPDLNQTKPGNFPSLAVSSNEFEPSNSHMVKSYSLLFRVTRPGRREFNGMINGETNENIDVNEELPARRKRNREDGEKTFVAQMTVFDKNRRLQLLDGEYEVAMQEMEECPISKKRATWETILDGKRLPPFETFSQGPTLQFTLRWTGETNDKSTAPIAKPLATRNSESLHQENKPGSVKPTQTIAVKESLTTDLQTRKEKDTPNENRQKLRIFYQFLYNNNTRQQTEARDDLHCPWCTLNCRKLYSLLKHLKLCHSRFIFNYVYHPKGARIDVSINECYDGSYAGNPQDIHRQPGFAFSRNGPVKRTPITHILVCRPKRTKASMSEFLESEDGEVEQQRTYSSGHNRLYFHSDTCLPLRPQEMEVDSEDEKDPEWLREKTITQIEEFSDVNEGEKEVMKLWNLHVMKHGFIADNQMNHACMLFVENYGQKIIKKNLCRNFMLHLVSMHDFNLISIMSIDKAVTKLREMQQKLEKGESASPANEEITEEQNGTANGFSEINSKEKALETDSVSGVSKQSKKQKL
PRC2 containing wt EZH2, sequence (Q09028 whole entry partner): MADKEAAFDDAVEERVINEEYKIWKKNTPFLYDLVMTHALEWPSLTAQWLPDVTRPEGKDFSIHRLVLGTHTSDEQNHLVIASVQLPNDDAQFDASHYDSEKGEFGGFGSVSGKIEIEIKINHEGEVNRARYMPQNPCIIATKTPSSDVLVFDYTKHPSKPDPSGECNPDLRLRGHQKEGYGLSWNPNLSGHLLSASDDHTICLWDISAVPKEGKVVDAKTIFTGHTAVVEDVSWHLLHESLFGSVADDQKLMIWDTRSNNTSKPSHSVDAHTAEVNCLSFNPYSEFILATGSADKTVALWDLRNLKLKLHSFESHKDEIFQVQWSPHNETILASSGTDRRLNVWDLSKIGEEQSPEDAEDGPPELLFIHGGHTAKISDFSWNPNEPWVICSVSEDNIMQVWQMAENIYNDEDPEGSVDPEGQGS
PRC2 containing wt EZH2, sequence (Q6ZN18 whole entry partner): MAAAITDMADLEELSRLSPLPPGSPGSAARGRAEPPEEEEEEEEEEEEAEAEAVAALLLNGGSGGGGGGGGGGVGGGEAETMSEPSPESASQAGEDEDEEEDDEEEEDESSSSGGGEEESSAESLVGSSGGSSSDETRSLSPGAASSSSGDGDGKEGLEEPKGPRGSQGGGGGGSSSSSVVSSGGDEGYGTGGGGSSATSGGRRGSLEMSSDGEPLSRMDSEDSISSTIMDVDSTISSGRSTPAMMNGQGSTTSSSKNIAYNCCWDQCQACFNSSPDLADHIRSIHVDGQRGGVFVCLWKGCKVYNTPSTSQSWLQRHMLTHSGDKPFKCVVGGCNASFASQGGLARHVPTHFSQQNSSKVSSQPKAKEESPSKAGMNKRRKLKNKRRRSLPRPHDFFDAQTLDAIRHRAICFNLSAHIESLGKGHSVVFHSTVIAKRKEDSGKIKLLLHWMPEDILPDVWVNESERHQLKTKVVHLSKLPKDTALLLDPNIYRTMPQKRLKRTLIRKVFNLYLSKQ
Experimental: EZH2 biochemical assay (IC50): Compound potencies were assessed through incorporation of ^3H-SAM into a biotinylated H3 peptide. Specifically, 30 pM PRC2 containing wt EZH2 (pentameric complex prepared in-house) was pre-incubated with 450 nM SAM, 450 nM ^3H-SAM, 2 μM H3K27me3 activating peptide (H2N-[…](Kme3)[…]-amide) and compounds (as 10 point duplicate dose response titrations in DMSO, final assay 0.8% DMSO (v/v)) for 3-5 h in 50 mM Tris (pH 8.5), 1 mM DTT, 0.07 mM Brij-35, 0.1% BSA, and 0.8% DMSO in a total volume of 12.5 μl. Reaction was initiated with biotinylated H3 substrate peptide (H2N-[…](Kme1)[…]-NTPEGBiot) as a 2 μM stock in 12.5 μl of buffer and allowed to react at room temperature for 18-22 h. Quenching was accomplished by addition of 20 μl of STOP solution (50 mM Tris (pH 8.5), 200 mM EDTA, 2 mM SAH). 35 μl of the quenched solution was transferred to streptavidin coated FlashPlates (PerkinElmer), incubated 1-2 h, washed, and read in a TopCount Reader (PerkinElmer). IC50s were calculated in Genedata Screener using non-linear least square four parameter fits, where the four parameters were IC50, Hill slope, pre-transitional baseline (0% INH), and post-transitional baseline (100% INH).
IC50 values are reported as follows: “A” indicates an IC50 value of less than 0.5 nM; “B” indicates an IC50 value of 0.5 nM to 5 nM; “C” indicates an IC50 value of greater than 5 nM for each enzyme; and “ND” is not determined.

[3] = EZH2 (IC50), 30 pM PRC2 containing wt EZH2; 3-5 h pre-incubation
[4] = 30 pM PRC2 containing wt EZH2; 3-5 h pre-incubation; read-out: EZH2 (IC50)

## CSc1cc(C)[nH]c(=O)c1CNC(=O)c1c(C)n([C@H](C)C2CCC(O)CC2)c2ccccc12 (single isomer, unassigned) [19 (isomer 1)]
[1]; Homo sapiens, HeLa, 72 h
  EC50: < 10 nM
[2]; [3]
  IC50: < 0.5 nM

## CSc1cc(C)[nH]c(=O)c1CNC(=O)c1c(C)n([C@H](C)C2CCOCC2)c2ccccc12 [Example 13, (R)-2-methyl-N-((6-methyl-4-(methylthio)-2-oxo-1,2-dihydropyridin-3-yl)methyl)-1-(1-(tetrahydro-2H-pyran-4-yl)ethyl)-1H-indole-3-carboxamide]
[1]; Homo sapiens, HeLa, 72 h
  EC50: < 10 nM
[2]; [3]
  IC50: < 0.5 nM

## CSc1cc(C)[nH]c(=O)c1CNC(=O)c1c(C)n([C@H](C)C2CCN(C3CC3)CC2)c2cc(F)ccc12 [Example 57, (R)-1-(1-(1-cyclopropylpiperidin-4-yl)ethyl)-6-fluoro-2-methyl-N-((6-methyl-4-(methylthio)-2-oxo-1,2-dihydropyridin-3-yl)methyl)-1H-indole-3-carboxamide]
[1]; Homo sapiens, HeLa, 72 h
  EC50: < 10 nM
[2]; [3]
  IC50: < 0.5 nM

## CSc1cc(C)[nH]c(=O)c1CNC(=O)c1c(C)n([C@H](C)[C@H]2OC[C@H](N3CCC34COC4)CO2)c2ccccc12 (single isomer, unassigned; isomer 2) [150 (isomer 2)]
[1]
  EC50: < 10 nM
[2]; [4]
  IC50: < 0.5 nM

## CSc1cc(C)[nH]c(=O)c1CNC(=O)c1c(C)n([C@H](C)[C@H]2CCN(C3CC3)CC2(F)F)c2ncccc12 (single isomer, unassigned) [70 (isomer 1)]
[1]; Homo sapiens, HeLa, 72 h
  EC50: < 10 nM
[2]; [3]
  IC50: < 0.5 nM

## CSc1cc(C)[nH]c(=O)c1CNC(=O)c1c(C)n([C@H](C)C2CCC(N3CC(C)(F)C3)CC2)c2ncccc12 (stereo partly drawn) [Example 80, 1-((R)-1-(4-(3-fluoro-3-methylazetidin-1-yl)cyclohexyl)ethyl)-2-methyl-N-((6-methyl-4-(methylthio)-2-oxo-1,2-dihydropyridin-3-yl)methyl)-1H-pyrrolo[2,3-b]pyridine-3-carboxamide]
[1]; Homo sapiens, HeLa, 72 h
  EC50: 10 to 100 nM
[2]; [3]
  IC50: < 0.5 nM

## CSc1cc(C)[nH]c(=O)c1CNC(=O)c1c(C)n([C@H](C)[C@H]2CC[C@H](N3CC(OC(F)F)C3)CC2)c2ncccc12 (single isomer, unassigned) [27 (isomer 1)]
[1]; Homo sapiens, HeLa, 72 h
  EC50: < 10 nM
[2]; [4]
  IC50: < 0.5 nM

## CSc1cc(C)[nH]c(=O)c1CNC(=O)c1c(C)n([C@H](C)C2CCC(N3CC(OC(F)F)C3)CC2)c2ccccc12 (single isomer, unassigned) [20 (isomer 2)]
[1]
  EC50: 10 to 100 nM
[2]; [4]
  IC50: < 0.5 nM

## CSc1cc(C)[nH]c(=O)c1CNC(=O)c1c(C)n([C@H](C)C2CCC(O)CC2)c2ncc(Cl)cc12 (single isomer, unassigned) [53 (isomer 1)]
[1]; Homo sapiens, HeLa, 72 h
  EC50: 10 to 100 nM
[2]; [3]
  IC50: < 0.5 nM

## CSc1cc(C)[nH]c(=O)c1CNC(=O)c1c(C)n([C@H](C)C2CCC(N3CC(OCC(F)F)C3)CC2)c2ncccc12 (stereo partly drawn) [Example 116, 1-((R)-1-(4-(3-(2,2-difluoroethoxy)azetidin-1-yl)cyclohexyl)ethyl)-2-methyl-N-((6-methyl-4-(methylthio)-2-oxo-1,2-dihydropyridin-3-yl)methyl)-1H-pyrrolo[2,3-b]pyridine-3-carboxamide]
[1]; Homo sapiens, HeLa, 72 h
  EC50: < 10 nM
[2]; [4]
  IC50: < 0.5 nM

## CSc1cc(C)[nH]c(=O)c1CNC(=O)c1c(C)n([C@H](C)C2OCC(N3CC(F)(F)C3)CO2)c2ccccc12 (single isomer, unassigned) [85 (isomer 1)]
[1]
  EC50: 10 to 100 nM
[2]; [3]
  IC50: < 0.5 nM

## CSc1cc(C)[nH]c(=O)c1CNC(=O)c1c(C)n([C@H](C)C2CCNC[C@H]2F)c2ccccc12 (stereo partly drawn) [Example 38, 1-((1R)-1-((3S)-3-fluoropiperidin-4-yl)ethyl)-2-methyl-N-((6-methyl-4-(methylthio)-2-oxo-1,2-dihydropyridin-3-yl)methyl)-1H-indole-3-carboxamide]
[1]; Homo sapiens, HeLa, 72 h
  EC50: 10 to 100 nM
[2]; [3]
  IC50: < 0.5 nM

## CSc1cc(C)[nH]c(=O)c1CNC(=O)c1c(C)n([C@@H](C)C2COC2)c2ccccc12 (single isomer, unassigned) [14 (isomer 2)]
[1]; Homo sapiens, HeLa, 72 h
  EC50: > 100 nM
[2]; [3]
  IC50: > 5 nM

## CSc1cc(C)[nH]c(=O)c1CNC(=O)c1c(C)n([C@H](C)C2CCC(N3CC(O)C3)CC2)c2ccccc12 (stereo partly drawn) [Example 136, (R)-1-(1-(4-(3-hydroxyazetidin-1-yl)cyclohexyl)ethyl)-2-methyl-N-((6-methyl-4-(methylthio)-2-oxo-1,2-dihydropyridin-3-yl)methyl)-1H-indole-3-carboxamide]
[1]; Homo sapiens, HeLa, 72 h
  EC50: > 100 nM
[2]; [3]
  IC50: < 0.5 nM

## CSc1cc(C)[nH]c(=O)c1CNC(=O)c1c(C)n([C@H](C)C2CCN(C)C[C@H]2F)c2ccccc12 (stereo partly drawn) [Example 43, 1-((1R)-1-((3S)-3-fluoro-1-methylpiperidin-4-yl)ethyl)-2-methyl-N-((6-methyl-4-(methylthio)-2-oxo-1,2-dihydropyridin-3-yl)methyl)-1H-indole-3-carboxamide]
[1]; Homo sapiens, HeLa, 72 h
  EC50: 10 to 100 nM
[2]; [3]
  IC50: < 0.5 nM

## CSc1cc(C)[nH]c(=O)c1CNC(=O)c1c(C)n([C@H](C)C2CCN(C3CC3)CC2)c2ncc(Cl)cc12 [Example 69, (R)-5-chloro-1-(1-(1-cyclopropylpiperidin-4-yl)ethyl)-2-methyl-N-((6-methyl-4-(methylthio)-2-oxo-1,2-dihydropyridin-3-yl)methyl)-1H-pyrrolo[2,3-b]pyridine-3-carboxamide]
[1]; Homo sapiens, HeLa, 72 h
  EC50: < 10 nM
[2]; [3]
  IC50: < 0.5 nM

## CC[C@@H](C1CCC(N2CC(OC(F)F)C2)CC1)n1c(C)c(C(=O)NCc2c(SC)cc(C)[nH]c2=O)c2cccnc21 (stereo partly drawn) [Example 117, 1-((S)-1-(4-(3-(difluoromethoxy)azetidin-1-yl)cyclohexyl)propyl)-2-methyl-N-((6-methyl-4-(methylthio)-2-oxo-1,2-dihydropyridin-3-yl)methyl)-1H-pyrrolo[2,3-b]pyridine-3-carboxamide]
[1]; Homo sapiens, HeLa, 72 h
  EC50: 10 to 100 nM
[2]; [4]
  IC50: 0.5 to 5 nM

## CSc1cc(C)[nH]c(=O)c1CNC(=O)c1c(C)n([C@H](C)C2CCC(OC(F)F)CC2)c2ccccc12 (single isomer, unassigned) [60 (isomer 2)]
[1]
  EC50: < 10 nM
[2]; read-out: EZH2 (IC50); 30 pM PRC2 containing wt EZH2; 3-5 h pre-incubation
  IC50: < 0.5 nM

## CSc1cc(C)[nH]c(=O)c1CNC(=O)c1c(C)n([C@H](C)C2CCC(N3CC(OC4CC4)C3)CC2)c2c(F)cccc12 (single isomer, unassigned) [113 (isomer 2)]
[1]
  EC50: 10 to 100 nM
[2]; [4]
  IC50: < 0.5 nM

## CSc1cc(C)[nH]c(=O)c1CNC(=O)c1c(C)n([C@H](C)C2CCC(N3CC[C@@H](F)C3)CC2)c2ncc(Cl)cc12 (stereo partly drawn) [Example 107, 5-chloro-1-((R)-1-(4-((R)-3-fluoropyrrolidin-1-yl)cyclohexyl)ethyl)-2-methyl-N-((6-methyl-4-(methylthio)-2-oxo-1,2-dihydropyridin-3-yl)methyl)-1H-pyrrolo[2,3-b]pyridine-3-carboxamide]
[1]; Homo sapiens, HeLa, 72 h
  EC50: 10 to 100 nM
[2]; [4]
  IC50: < 0.5 nM
